{"source": "patent US20210251963A1", "about": "“UREA DERIVATIVES FOR USE IN THE TREATMENT OF SUBJECTS WITH ELEVATED EXPRESSION AND/OR ACTIVITY OF SRPK1” (Scandion Oncology A/S, priority 2018, published 2021)", "experiment_in_all_cases": "Premier Screen kinase activity screening (33P ATP filter binding)", "type_in_all_cases": "biochemical", "settings_in_all_cases": "10 μM SCO-101, mean of assay duplicates, read-out: Kinase activity (percentage of DMSO control)", "key": {"[1]": {"biological_target": "T1, TIE2 (Homo sapiens, UniProt Q02763)", "T1 construct": "MRC Dundee (screening service)", "T1 sequence (Q02763 23-1124, species assumed)": "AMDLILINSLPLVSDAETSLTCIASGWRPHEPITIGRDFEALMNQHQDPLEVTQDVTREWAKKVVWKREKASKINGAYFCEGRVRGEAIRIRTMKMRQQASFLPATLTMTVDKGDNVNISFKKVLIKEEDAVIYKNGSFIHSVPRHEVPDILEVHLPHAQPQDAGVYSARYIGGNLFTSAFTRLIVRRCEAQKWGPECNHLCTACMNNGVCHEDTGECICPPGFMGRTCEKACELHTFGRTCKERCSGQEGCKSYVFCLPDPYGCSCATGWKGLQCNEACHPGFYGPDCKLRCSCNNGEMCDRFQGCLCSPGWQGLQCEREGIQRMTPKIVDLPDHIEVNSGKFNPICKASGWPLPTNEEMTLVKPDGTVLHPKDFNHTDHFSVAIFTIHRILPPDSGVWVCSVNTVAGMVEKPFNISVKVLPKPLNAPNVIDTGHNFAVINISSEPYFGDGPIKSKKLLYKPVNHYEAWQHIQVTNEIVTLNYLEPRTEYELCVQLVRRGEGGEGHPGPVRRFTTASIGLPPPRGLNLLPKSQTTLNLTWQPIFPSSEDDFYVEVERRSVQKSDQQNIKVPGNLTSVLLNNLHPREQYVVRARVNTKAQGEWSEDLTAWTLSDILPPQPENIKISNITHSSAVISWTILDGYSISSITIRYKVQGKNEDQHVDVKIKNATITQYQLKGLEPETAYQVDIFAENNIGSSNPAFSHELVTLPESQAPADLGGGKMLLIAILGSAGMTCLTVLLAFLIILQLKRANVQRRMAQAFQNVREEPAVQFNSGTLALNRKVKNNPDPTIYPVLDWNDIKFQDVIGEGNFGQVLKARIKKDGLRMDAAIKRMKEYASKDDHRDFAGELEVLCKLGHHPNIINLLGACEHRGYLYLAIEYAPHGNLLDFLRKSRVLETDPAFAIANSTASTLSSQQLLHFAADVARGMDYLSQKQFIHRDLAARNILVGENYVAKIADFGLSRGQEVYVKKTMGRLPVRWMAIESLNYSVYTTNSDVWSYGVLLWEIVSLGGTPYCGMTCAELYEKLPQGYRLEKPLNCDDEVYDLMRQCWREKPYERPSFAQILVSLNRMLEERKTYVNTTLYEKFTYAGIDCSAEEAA", "procedure,_shortened": "(§1)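 33P-ATP filter-binding read-out; compound at 10 μM, duplicates. Result given as mean % activity vs DMSO control ± SD.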"}, "[2]": {"biological_target": "JAK3 (Homo sapiens, UniProt P52333)", "sequence (P52333 whole entry, species assumed)": "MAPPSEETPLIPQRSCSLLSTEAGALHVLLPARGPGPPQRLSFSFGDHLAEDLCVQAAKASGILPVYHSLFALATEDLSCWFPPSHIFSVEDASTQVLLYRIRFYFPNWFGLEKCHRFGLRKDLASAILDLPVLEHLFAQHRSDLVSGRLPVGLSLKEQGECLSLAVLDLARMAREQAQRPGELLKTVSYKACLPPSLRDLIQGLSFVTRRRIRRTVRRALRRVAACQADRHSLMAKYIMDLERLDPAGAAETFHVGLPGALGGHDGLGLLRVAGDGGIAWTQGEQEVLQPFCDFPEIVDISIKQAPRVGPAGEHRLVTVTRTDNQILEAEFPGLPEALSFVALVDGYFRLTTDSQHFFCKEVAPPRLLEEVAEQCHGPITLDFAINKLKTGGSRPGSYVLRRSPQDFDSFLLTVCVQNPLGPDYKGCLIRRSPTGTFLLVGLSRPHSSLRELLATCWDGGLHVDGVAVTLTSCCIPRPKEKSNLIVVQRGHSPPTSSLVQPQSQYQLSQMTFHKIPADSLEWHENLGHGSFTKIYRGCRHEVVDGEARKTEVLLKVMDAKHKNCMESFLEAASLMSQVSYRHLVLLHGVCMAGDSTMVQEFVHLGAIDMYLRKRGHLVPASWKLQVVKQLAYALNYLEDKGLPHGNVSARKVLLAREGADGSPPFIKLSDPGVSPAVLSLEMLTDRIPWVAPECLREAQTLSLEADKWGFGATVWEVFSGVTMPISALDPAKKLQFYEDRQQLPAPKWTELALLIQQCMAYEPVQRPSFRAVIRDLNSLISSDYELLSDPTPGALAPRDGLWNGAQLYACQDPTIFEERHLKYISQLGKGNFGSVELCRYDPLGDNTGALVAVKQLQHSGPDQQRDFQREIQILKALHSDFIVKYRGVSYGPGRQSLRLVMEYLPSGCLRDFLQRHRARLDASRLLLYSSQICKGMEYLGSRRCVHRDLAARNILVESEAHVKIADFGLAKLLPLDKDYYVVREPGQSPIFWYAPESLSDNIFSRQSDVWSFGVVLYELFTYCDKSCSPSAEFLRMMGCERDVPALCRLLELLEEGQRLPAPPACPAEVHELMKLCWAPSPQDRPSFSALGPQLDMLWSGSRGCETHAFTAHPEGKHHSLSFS", "procedure,_shortened": "as §1"}, "[3]": {"biological_target": "T2, DYRK1A (Homo sapiens, UniProt Q13627)", "T2 construct": "purchased MRC Dundee, Premier Screen (contract screening service)", "procedure,_shortened": "as §1"}, "[4]": {"biological_target": "ERK2 (Homo sapiens, UniProt P28482)", "sequence (P28482 whole entry, species assumed)": "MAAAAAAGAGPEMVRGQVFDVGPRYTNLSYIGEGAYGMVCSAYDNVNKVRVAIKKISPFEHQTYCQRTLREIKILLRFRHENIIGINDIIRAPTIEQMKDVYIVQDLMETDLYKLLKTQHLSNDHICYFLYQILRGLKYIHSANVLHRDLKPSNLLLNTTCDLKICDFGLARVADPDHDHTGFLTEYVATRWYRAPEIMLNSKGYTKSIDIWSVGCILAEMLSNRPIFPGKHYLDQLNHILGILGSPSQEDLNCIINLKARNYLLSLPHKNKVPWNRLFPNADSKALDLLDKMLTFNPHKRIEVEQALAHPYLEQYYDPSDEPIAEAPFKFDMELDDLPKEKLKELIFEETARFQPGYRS", "procedure,_shortened": "as §1"}, "[5]": {"biological_target": "T3, TSSK1 (Homo sapiens, UniProt Q9BXA7)", "T3 construct": "MRC in Dundee (screening service)", "T3 sequence (Q9BXA7 whole entry, species assumed)": "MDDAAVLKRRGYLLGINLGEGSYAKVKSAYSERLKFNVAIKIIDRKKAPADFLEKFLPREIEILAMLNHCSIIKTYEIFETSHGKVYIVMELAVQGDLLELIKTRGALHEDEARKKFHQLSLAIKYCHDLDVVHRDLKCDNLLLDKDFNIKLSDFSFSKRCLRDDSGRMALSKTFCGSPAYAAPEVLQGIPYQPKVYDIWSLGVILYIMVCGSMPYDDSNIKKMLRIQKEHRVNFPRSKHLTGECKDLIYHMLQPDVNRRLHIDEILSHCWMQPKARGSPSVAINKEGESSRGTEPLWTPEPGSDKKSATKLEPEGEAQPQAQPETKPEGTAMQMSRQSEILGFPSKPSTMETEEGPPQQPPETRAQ", "procedure,_shortened": "as §1"}, "[6]": {"biological_target": "p38d MAPK (Homo sapiens, UniProt O15264)", "sequence (O15264 whole entry)": "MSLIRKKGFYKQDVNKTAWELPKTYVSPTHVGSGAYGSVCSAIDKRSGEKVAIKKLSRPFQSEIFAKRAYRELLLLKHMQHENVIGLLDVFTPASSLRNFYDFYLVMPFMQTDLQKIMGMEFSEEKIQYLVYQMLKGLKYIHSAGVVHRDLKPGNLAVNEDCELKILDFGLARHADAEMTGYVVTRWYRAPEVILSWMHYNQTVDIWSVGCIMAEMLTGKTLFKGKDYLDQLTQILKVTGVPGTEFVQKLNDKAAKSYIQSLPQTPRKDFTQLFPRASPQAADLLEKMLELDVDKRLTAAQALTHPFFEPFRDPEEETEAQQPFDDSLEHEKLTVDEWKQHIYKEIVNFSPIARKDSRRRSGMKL", "procedure,_shortened": "as §1"}, "[7]": {"biological_target": "T4, GSK3b (Homo sapiens, UniProt P49841)", "T4 construct": "MRC Dundee (screening service)", "T4 sequence (P49841 whole entry, species assumed)": "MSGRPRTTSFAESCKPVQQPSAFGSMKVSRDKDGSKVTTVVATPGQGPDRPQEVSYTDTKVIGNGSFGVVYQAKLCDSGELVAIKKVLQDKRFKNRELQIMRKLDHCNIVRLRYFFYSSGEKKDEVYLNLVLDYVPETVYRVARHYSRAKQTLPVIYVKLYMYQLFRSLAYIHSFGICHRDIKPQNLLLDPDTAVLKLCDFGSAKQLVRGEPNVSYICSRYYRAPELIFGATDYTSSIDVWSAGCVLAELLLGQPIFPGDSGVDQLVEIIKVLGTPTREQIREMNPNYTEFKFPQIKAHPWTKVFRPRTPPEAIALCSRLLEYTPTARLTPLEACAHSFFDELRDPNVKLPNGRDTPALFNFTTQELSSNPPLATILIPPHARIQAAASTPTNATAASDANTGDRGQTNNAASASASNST", "procedure,_shortened": "as §1"}, "[8]": {"biological_target": "T5, IRR (Homo sapiens, UniProt P14616)", "T5 construct": "purchased MRC in Dundee (Premier Screen service)", "T5 sequence (P14616 27-1297, species assumed)": "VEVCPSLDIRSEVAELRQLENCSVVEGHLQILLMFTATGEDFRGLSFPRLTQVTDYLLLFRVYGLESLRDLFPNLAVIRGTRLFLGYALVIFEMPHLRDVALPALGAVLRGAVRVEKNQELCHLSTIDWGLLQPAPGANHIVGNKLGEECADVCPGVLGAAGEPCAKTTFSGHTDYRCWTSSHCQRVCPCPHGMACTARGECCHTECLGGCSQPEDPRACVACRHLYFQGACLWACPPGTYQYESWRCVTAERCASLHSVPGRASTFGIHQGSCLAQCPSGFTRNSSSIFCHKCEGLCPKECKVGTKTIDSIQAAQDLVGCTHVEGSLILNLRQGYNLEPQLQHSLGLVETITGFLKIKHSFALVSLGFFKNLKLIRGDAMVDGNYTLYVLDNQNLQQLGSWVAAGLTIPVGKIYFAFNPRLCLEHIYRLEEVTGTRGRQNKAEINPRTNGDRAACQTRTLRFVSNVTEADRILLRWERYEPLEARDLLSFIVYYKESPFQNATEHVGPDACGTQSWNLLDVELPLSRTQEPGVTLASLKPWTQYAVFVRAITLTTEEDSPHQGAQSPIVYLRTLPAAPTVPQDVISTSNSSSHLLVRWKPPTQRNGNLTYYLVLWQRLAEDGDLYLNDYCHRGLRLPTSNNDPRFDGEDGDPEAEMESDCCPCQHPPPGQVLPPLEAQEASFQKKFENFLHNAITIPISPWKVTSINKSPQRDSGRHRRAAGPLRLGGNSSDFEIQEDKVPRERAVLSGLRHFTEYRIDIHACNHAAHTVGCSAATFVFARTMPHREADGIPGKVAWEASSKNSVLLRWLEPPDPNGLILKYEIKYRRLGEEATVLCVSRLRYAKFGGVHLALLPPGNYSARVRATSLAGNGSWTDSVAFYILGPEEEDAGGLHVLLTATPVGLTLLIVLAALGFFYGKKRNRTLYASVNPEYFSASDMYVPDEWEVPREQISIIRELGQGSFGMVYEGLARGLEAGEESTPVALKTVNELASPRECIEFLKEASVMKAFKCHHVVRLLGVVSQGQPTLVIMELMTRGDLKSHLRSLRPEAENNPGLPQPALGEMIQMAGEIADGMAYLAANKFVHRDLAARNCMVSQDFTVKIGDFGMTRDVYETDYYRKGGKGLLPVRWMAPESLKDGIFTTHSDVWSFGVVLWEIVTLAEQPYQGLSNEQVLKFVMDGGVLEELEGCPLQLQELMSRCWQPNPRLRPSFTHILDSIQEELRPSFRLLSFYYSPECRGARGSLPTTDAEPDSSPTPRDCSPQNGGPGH", "procedure,_shortened": "as §1"}}, "data": [{"smiles": "O=C(Nc1cc(C(F)(F)F)cc(C(F)(F)F)c1)Nc1ccc(Br)cc1-c1nnn[nH]1", "note": "[SCO-101]", "values": [{"measurement": "remaining activity at 10 µM", "setting": "[1]", "result": 95, "unit": "%"}, {"measurement": "remaining activity at 10 µM", "setting": "[2]", "result": 121, "unit": "%"}, {"measurement": "remaining activity at 10 µM", "setting": "[3]", "result": 112, "unit": "%"}, {"measurement": "remaining activity at 10 µM", "setting": "[4]", "result": 119, "unit": "%"}, {"measurement": "remaining activity at 10 µM", "setting": "[5]", "result": 83, "unit": "%"}, {"measurement": "remaining activity at 10 µM", "setting": "[6]", "result": 113, "unit": "%"}, {"measurement": "remaining activity at 10 µM", "setting": "[7]", "result": 99, "unit": "%"}, {"measurement": "remaining activity at 10 µM", "setting": "[8]", "result": 131, "unit": "%"}]}]}
